What was measured:
[1] = system: HEK293T cells; experiment: Proteome-wide quantitation by mass spectrometry (TMT); format: cell-based, human; details: for log2FC compound 41: 1uM, 2h
[2] = system: Cyclin K; experiment: Cyclin K levels by Western blot after single-concentration treatment; format: cell-based, human; details: HEK293T cells, 1 μM for 2 h, quantified from Western blots, mean ± SD, three independent experiments
Procedure, shortened: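 Cyclin K quantified by Western blot of HEK293T lysates after a single compound concentration, with ImageJ densitometry normalized to GAPDH. Cells grown in DMEM/10% FBS at 37 °C, 5% CO2.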

[3] = target: T1, CDK12 (Homo sapiens, UniProt Q9NYV4); experiment: KINOMEscan binding assay (Eurofins DiscoverX); details: KINOMEscan
T1 construct: purchased Eurofins DiscoverX (KINOMEscan service)
T1 sequence (Q9NYV4 whole entry): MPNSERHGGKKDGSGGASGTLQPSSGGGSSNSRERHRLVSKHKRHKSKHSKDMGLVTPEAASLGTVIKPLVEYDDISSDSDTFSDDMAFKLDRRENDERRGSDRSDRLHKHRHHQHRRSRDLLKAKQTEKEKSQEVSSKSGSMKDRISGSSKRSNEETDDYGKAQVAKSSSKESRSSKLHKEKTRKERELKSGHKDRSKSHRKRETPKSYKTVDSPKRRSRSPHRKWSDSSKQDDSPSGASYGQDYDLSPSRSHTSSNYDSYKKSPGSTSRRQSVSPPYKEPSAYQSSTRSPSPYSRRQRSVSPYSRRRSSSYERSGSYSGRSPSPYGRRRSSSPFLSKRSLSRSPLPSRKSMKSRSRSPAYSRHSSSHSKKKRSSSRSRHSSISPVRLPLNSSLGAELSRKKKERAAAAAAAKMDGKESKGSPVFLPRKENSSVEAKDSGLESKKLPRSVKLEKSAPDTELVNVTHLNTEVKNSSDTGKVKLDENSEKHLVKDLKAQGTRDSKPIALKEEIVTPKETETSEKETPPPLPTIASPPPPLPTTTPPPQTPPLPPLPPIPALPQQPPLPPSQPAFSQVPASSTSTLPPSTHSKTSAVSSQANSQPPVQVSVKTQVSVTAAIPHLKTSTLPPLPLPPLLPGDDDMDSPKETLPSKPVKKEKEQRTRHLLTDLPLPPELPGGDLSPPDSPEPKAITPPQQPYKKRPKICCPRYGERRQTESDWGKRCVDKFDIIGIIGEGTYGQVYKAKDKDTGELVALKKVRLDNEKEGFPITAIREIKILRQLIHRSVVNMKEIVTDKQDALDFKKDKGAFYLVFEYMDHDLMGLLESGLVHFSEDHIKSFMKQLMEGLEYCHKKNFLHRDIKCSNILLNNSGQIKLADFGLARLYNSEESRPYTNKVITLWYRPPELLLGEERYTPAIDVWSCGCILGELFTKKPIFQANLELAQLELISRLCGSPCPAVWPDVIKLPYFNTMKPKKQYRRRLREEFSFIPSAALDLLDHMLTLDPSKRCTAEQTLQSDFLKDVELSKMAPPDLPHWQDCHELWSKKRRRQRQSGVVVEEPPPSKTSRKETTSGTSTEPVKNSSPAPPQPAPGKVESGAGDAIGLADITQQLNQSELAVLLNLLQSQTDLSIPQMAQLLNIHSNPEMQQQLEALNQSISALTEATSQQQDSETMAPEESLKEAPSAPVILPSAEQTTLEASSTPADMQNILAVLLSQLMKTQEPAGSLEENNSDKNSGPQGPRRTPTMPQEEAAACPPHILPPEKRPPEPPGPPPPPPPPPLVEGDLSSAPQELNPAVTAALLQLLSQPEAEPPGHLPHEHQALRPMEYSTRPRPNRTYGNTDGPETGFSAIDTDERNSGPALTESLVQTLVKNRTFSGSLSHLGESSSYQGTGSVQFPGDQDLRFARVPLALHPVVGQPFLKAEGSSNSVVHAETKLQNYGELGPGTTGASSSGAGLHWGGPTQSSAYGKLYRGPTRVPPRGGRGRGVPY

[4] = system: Cyclin K; experiment: Cyclin K degradation concentration-response (DC50, DMax) by Western blot; format: cell-based, human; details: HEK293T, Western blot quantification, 3 biological repeats
Procedure, shortened: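 HEK293T cells treated across a concentration range; lysates immunoblotted for Cyclin K with GAPDH as loading control, ECL detection. Band intensities quantified, Cyclin K normalized to GAPDH, and DC50 derived by 4-parameter nonlinear regression of concentration–response curves.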

## O=C(NCc1ccc(C2=CCOCC2)cc1)c1n[nH]cc1NC(=O)c1c(Cl)cccc1Cl [compound 41]
[1]
  log2FC compound 41: 1.1108
[1]; HEK293T, 1 μM, 2 h treatment
  number of proteins showing at least a −0.5 log2 fold change: 33 proteins
[1]; protein AKR7A2 (Aflatoxin B1 aldehyde reductase member 2, O43488)
  log2FC compound 41: -0.7339
[1]; protein ALG10 (Dol-P-Glc:Glc(2)Man(9)GlcNAc(2)-PP-Dol alpha-1,2-glucosyltransferase, Q5BKT4)
  log2FC compound 41: 0.9798
[1]; protein ALKBH2 (DNA oxidative demethylase ALKBH2, Q6NS38)
  log2FC compound 41: 0.728
[1]; protein ARF4 (ADP-ribosylation factor 4, P18085)
  log2FC compound 41: 0.7714
[1]; protein ATP6AP1 (V-type proton ATPase subunit S1, Q15904)
  log2FC compound 41: 0.6251
[1]; protein B3GLCT (Beta-1,3-glucosyltransferase, Q6Y288)
  log2FC compound 41: 0.6029
[1]; protein BTF3L4 (Transcription factor BTF3 homolog 4, Q96K17)
  log2FC compound 41: 0.5924
[1]; protein C1orf167 (Uncharacterized protein C1orf167, Q5SNV9)
  log2FC compound 41: 1.3705
[1]; protein CCNK (Cyclin-K, O75909)
  log2FC compound 41: -1.4213
[1]; protein CD9 (CD9 antigen, P21926)
  log2FC compound 41: 0.6995
[1]; protein CD59 (CD59 glycoprotein, P13987)
  log2FC compound 41: 1.3635
[1]; protein CD63 (CD63 antigen, P08962)
  log2FC compound 41: 1.3469
[1]; protein CD151 (CD151 antigen, P48509)
  log2FC compound 41: 0.7942
[1]; protein CDKL5 (Cyclin-dependent kinase-like 5, O76039)
  log2FC compound 41: 1.2994
[1]; protein CENPW (Centromere protein W, Q5EE01)
  log2FC compound 41: 0.6212
[1]; protein CERS1 (Ceramide synthase 1, P27544)
  log2FC compound 41: 0.5956
[1]; protein CHCHD1 (Coiled-coil-helix-coiled-coil-helix domain-containing protein 1, Q96BP2)
  log2FC compound 41: -0.843
[1]; protein CHCHD2 (Coiled-coil-helix-coiled-coil-helix domain-containing protein 2, Q9Y6H1)
  log2FC compound 41: -0.961
[1]; protein CNOT8 (CCR4-NOT transcription complex subunit 8, Q9UFF9)
  log2FC compound 41: 0.5912
[1]; protein COA7 (Cytochrome c oxidase assembly factor 7, Q96BR5)
  log2FC compound 41: -0.7413
[1]; protein COPRS (Coordinator of PRMT5 and differentiation stimulator, Q9NQ92)
  log2FC compound 41: 0.7957
[1]; protein COX6B1 (Cytochrome c oxidase subunit 6B1, P14854)
  log2FC compound 41: 0.7689
[1]; protein COX7A2 (Cytochrome c oxidase subunit 7A2, mitochondrial, P14406)
  log2FC compound 41: -1.7055
[1]; protein CSNK2B (Casein kinase II subunit beta, P67870)
  log2FC compound 41: 0.62
[1]; protein CTSV (Cathepsin L2, O60911)
  log2FC compound 41: 0.7835
[1]; protein DCDC1 (Doublecortin domain-containing protein 1, M0R2J8)
  log2FC compound 41: 1.8264
[1]; protein DHX58 (Probable ATP-dependent RNA helicase DHX58, Q96C10)
  log2FC compound 41: 1.0451
[1]; protein DNAJC5 (DnaJ homolog subfamily C member 5, Q9H3Z4)
  log2FC compound 41: 0.994
[1]; protein DNPEP (Aspartyl aminopeptidase, Q9ULA0)
  log2FC compound 41: 0.6304
[1]; protein DYNLL1 (Dynein light chain 1, cytoplasmic, P63167)
  log2FC compound 41: -0.6985
[1]; protein ECI1 (Enoyl-CoA delta isomerase 1, mitochondrial, P42126)
  log2FC compound 41: 0.8277
[1]; protein EI24 (Etoposide-induced protein 2.4 homolog, O14681)
  log2FC compound 41: 0.8122
[1]; protein EIF5A2 (Eukaryotic translation initiation factor 5A-2, Q9GZV4)
  log2FC compound 41: 1.4183
[1]; protein ELP5 (Elongator complex protein 5, Q8TE02)
  log2FC compound 41: 0.6971
[1]; protein ERGIC3 (Endoplasmic reticulum-Golgi intermediate compartment protein 3, Q9Y282)
  log2FC compound 41: -0.6608
[1]; protein FAM219A (Protein FAM219A, Q8IW50)
  log2FC compound 41: 0.6921
[1]; protein FAM234A (Protein FAM234A, Q9H0X4)
  log2FC compound 41: 0.9598
[1]; protein GGH (Gamma-glutamyl hydrolase, Q92820)
  log2FC compound 41: 0.639
[1]; protein GNA15 (Guanine nucleotide-binding protein subunit alpha-15, P30679)
  log2FC compound 41: 1.1022
[1]; protein GYG2 (Glycogenin-2, O15488)
  log2FC compound 41: 0.8256
[1]; protein H2AC6 (Histone H2A type 1-C, Q93077)
  log2FC compound 41: -2.3143
[1]; protein H2AC14 (Histone H2A type 1-J, Q99878)
  log2FC compound 41: -2.3989
[1]; protein HMGN2 (Non-histone chromosomal protein HMG-17, P05204)
  log2FC compound 41: -0.8432
[1]; protein HNRNPA2B1 (Heterogeneous nuclear ribonucleoproteins A2/B1, P22626)
  log2FC compound 41: -0.5885
[1]; protein HSPB11 (Intraflagellar transport protein 25 homolog, Q9Y547)
  log2FC compound 41: 0.7236
[1]; protein KCTD1 (BTB/POZ domain-containing protein KCTD1, Q719H9)
  log2FC compound 41: 0.9367
[1]; protein KIAA0930 (Uncharacterized protein KIAA0930, Q6ICG6)
  log2FC compound 41: 0.6862
[1]; protein KIAA1549 (UPF0606 protein KIAA1549, Q9HCM3)
  log2FC compound 41: 0.7226
[1]; protein LIPA (Lysosomal acid lipase/cholesteryl ester hydrolase, P38571)
  log2FC compound 41: 0.766
[1]; protein LIPT2 (Putative lipoyltransferase 2, mitochondrial, A6NK58)
  log2FC compound 41: -0.7183
[1]; protein LPCAT3 (Lysophospholipid acyltransferase 5, Q6P1A2)
  log2FC compound 41: 1.5824
[1]; protein LPIN2 (Phosphatidate phosphatase LPIN2, Q92539)
  log2FC compound 41: 0.7762
[1]; protein LSM1 (U6 snRNA-associated Sm-like protein LSm1, O15116)
  log2FC compound 41: 1.1318
[1]; protein MEIS1 (Homeobox protein Meis1, O00470)
  log2FC compound 41: -0.7006
[1]; protein MGARP (Protein MGARP, Q8TDB4)
  log2FC compound 41: 0.8294
[1]; protein MKRN1 (E3 ubiquitin-protein ligase makorin-1, Q9UHC7)
  log2FC compound 41: 0.6085
[1]; protein MRPL24 (39S ribosomal protein L24, mitochondrial, Q96A35)
  log2FC compound 41: -0.8105
[1]; protein MSMO1 (Methylsterol monooxygenase 1, Q15800)
  log2FC compound 41: 0.6949
[1]; protein MT-ND4 (NADH-ubiquinone oxidoreductase chain 4, P03905)
  log2FC compound 41: 0.7038
[1]; protein NCBP2AS2 (Protein NCBP2AS2, Q69YL0)
  log2FC compound 41: -0.5975
[1]; protein NIPA2 (Magnesium transporter NIPA2, Q8N8Q9)
  log2FC compound 41: 0.8891
[1]; protein NSMCE4A (Non-structural maintenance of chromosomes element 4 homolog A, Q9NXX6)
  log2FC compound 41: 0.6459
[1]; protein NXT2 (NTF2-related export protein 2, Q9NPJ8)
  log2FC compound 41: 1.4453
[1]; protein ORC4 (Origin recognition complex subunit 4, O43929)
  log2FC compound 41: 0.6334
[1]; protein OSTC (Oligosaccharyltransferase complex subunit OSTC, Q9NRP0)
  log2FC compound 41: 0.6129
[1]; protein POP5 (Ribonuclease P/MRP protein subunit POP5, Q969H6)
  log2FC compound 41: 0.6256
[1]; protein PPP1CB (Serine/threonine-protein phosphatase PP1-beta catalytic subunit, P62140)
  log2FC compound 41: -0.8644
[1]; protein PRPF38A (Pre-mRNA-splicing factor 38A, Q8NAV1)
  log2FC compound 41: 0.6341
[1]; protein RBX1 (E3 ubiquitin-protein ligase RBX1, P62877)
  log2FC compound 41: 0.6251
[1]; protein RER1 (Protein RER1, O15258)
  log2FC compound 41: 0.5922
[1]; protein RPS29 (40S ribosomal protein S29, P62273)
  log2FC compound 41: -1.1057
[1]; protein SDHAF4 (Succinate dehydrogenase assembly factor 4, mitochondrial, Q5VUM1)
  log2FC compound 41: 0.8419
[1]; protein SEC11C (Signal peptidase complex catalytic subunit SEC11C, Q9BY50)
  log2FC compound 41: -0.5851
[1]; protein SERINC3 (Serine incorporator 3, Q13530)
  log2FC compound 41: 0.6778
[1]; protein SIAE (Sialate O-acetylesterase, Q9HAT2)
  log2FC compound 41: 0.753
[1]; protein SLC25A17 (Peroxisomal membrane protein PMP34, O43808)
  log2FC compound 41: 1.1015
[1]; protein SLC44A2 (Choline transporter-like protein 2, Q8IWA5)
  log2FC compound 41: 1.0845
[1]; protein SPCS1 (Signal peptidase complex subunit 1, Q9Y6A9)
  log2FC compound 41: 0.6654
[1]; protein STEAP2 (Metalloreductase STEAP2, Q8NFT2)
  log2FC compound 41: 0.6125
[1]; protein SURF4 (Surfeit locus protein 4, O15260)
  log2FC compound 41: 0.8751
[1]; protein TECR (Very-long-chain enoyl-CoA reductase, Q9NZ01)
  log2FC compound 41: 0.5914
[1]; protein TMCC3 (Transmembrane and coiled-coil domain protein 3, Q9ULS5)
  log2FC compound 41: 0.6529
[1]; protein TMED5 (Transmembrane emp24 domain-containing protein 5, Q9Y3A6)
  log2FC compound 41: 0.6722
[1]; protein TMEM41A (Transmembrane protein 41A, Q96HV5)
  log2FC compound 41: 0.881
[1]; protein TMSB4X (Thymosin beta-4, P62328)
  log2FC compound 41: -1.1542
[1]; protein TVP23C (Golgi apparatus membrane protein TVP23 homolog C, Q96ET8)
  log2FC compound 41: 0.698
[1]; protein UBE2R2 (Ubiquitin-conjugating enzyme E2 R2, Q712K3)
  log2FC compound 41: -0.7129
[1]; protein WHAMM (WASP homolog-associated protein with actin, membranes and microtubules, Q8TF30)
  log2FC compound 41: -0.8329
[1]; protein XPOT (Exportin-T, O43592)
  log2FC compound 41: 0.6641
[1]; protein ZBTB17 (Zinc finger and BTB domain-containing protein 17, Q13105)
  log2FC compound 41: 1.0947
[2]
  Remaining Cyclin K (%): 3 ± 1%
[3]
  Kd: 3.8 µM
[4]
  DMax (%): >95%
[4]; read-out: CycK DC50
  DC50: 141 nM
